Results published in US12281149B2, “Modulators of G-protein coupled receptors” (priority 2021, dated 2025).
*1 amine or outer side, *2 acyl side, *3 side chain or, on linkers, in order; H or OH if unused. Where a SMILES comes first, the peptide text is derived from it. Side-chain parts run from the residue outwards. [ ]: non-standard residue; d: D form. The star is where a group is joined. Isobutyryl(2-(3-CN-5-F-Ph)) = CC(C)(C(=O)*)c1cc(F)cc(C#N)c1; C20 diacid = O=C(O)CCCCCCCCCCCCCCCCCCC(=O)*; γGlu = O=C(O)[C@H](CCC(=O)[*:2])N[*:1]; X3 = CC(C)(C(=O)*)c1ccc(Cl)cc1; AEEA = NCCOCCOCC(=O)O; Aib = CC(C)(N)C(=O)O; βAla = NCCC(=O)O

Assays:
Assay type in all cases: cell-based
GLP-1 receptor [1] = target: T1, GLP-1 receptor (Homo sapiens, UniProt P43220); assay: HitHunter cAMP assay, GLP-1 receptor; conditions: for EC50: CHO cells stably expressing human GLP-1 receptor, cAMP accumulation, 30 min, read-out: EC50 GLP-1R; for Emax: CHO cells, cAMP, normalized to maximum signal from GLP-1 (high) and DMSO (low), read-out: Emax GLP-1R
T1 sequence (P43220 24-463): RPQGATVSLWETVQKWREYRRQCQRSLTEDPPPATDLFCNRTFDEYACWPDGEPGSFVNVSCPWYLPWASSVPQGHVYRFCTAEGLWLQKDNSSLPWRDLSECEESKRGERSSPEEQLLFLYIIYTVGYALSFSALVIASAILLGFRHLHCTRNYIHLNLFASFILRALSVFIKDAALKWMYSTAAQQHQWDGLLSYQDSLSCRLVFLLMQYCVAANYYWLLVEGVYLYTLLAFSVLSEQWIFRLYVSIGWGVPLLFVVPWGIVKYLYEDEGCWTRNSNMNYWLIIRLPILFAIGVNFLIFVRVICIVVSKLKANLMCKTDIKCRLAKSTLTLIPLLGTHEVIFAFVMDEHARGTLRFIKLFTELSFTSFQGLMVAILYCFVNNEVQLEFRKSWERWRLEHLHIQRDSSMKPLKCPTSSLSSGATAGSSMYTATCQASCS

GIP receptor [2] = target: T2, GIP receptor (Homo sapiens, UniProt P48546); assay: HitHunter cAMP assay, GIP receptor; conditions: for EC50: CHO cells stably expressing GIP receptor, cAMP accumulation, 30 min, read-out: EC50 GIP-1R; for Emax: CHO cells, cAMP, normalized to maximum signal from GIP (high) and DMSO (low), read-out: Emax GIP-1R
T2 sequence (P48546 22-466): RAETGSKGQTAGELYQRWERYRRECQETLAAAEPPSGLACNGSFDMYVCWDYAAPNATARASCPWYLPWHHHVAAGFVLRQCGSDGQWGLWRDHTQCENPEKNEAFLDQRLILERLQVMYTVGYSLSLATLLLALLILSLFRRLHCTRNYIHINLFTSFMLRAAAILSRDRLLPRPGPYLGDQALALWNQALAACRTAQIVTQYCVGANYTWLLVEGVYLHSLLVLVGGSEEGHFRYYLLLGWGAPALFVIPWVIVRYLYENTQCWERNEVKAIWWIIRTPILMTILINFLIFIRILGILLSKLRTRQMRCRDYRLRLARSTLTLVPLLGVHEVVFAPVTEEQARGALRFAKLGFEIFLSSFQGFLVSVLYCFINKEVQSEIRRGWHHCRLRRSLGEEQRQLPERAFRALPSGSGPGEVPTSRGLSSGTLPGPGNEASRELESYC

GIP receptor [3] = target: T2, GIP receptor; assay: PathHunter β-arrestin assay, GIP receptor; set-up: host or cells: PathHunter CHO-K1 GIPR β-Arrestin Cell Line; conditions: β-arrestin-2 recruitment, PathHunter CHO-K1 GIPR β-Arrestin Cell Line, 90 min at 37° C.; normalized to GIP; read-out: GIPR β Arrestin EC50
GLP-1 receptor [4] = target: T1, GLP-1 receptor; assay: PathHunter β-arrestin assay, GLP-1 receptor; set-up: host or cells: PathHunter CHO-K1 GLP1R β-Arrestin Cell Line; conditions: β-arrestin-2 recruitment, PathHunter CHO-K1 GLP1R β-Arrestin Cell Line, 90 min at 37° C.; normalized to GLP-1; read-out: GLP-1R β Arrestin EC50

Compound `CC[C@H](C)[C@H](NC(=O)[C@H](CC(C)C)NC(=O)[C@H](Cc1c[nH]c2ccccc12)NC(=O)[C@H](CC(N)=O)NC(=O)[C@@H](NC(=O)[C@H](Cc1ccccc1)NC(=O)[C@H](C)NC(=O)[C@H](CCCCNC(=O)COCCOCCNC(=O)COCCOCCNC(=O)CC[C@H](NC(=O)CCCCCCCCCCCCCCCCCCC(=O)O)C(=O)O)NC(=O)[C@H](CCC(N)=O)NC(=O)[C@H](C)NC(=O)[C@@H](NC(=O)[C@H](CCCCN)NC(=O)[C@H](CC(=O)O)NC(=O)[C@H](CC(C)C)NC(=O)C(C)(C)NC(=O)[C@@H](NC(=O)[C@H](CO)NC(=O)[C@H](Cc1ccc(O)cc1)NC(=O)[C@H](CC(=O)O)NC(=O)[C@H](CO)NC(=O)[C@@H](NC(=O)[C@H](Cc1ccccc1)NC(=O)[C@@H](NC(=O)CNC(=O)[C@H](CCC(=O)O)NC(=O)CCNC(=O)C(C)(C)c1cc(F)cc(C#N)c1)[C@@H](C)O)[C@@H](C)O)[C@@H](C)CC)[C@@H](C)CC)C(C)C)C(=O)N[C@@H](C)C(=O)NCC(=O)NCC(=O)N1CCC[C@H]1C(=O)N[C@@H](CO)C(=O)N[C@@H](CO)C(=O)NCC(=O)N[C@@H](C)C(=O)N1CCC[C@H]1C(=O)N1CCC[C@H]1C(=O)N1CCC[C@H]1C(=O)N[C@@H](CO)C(N)=O` [Compound 182] ({Isobutyryl(2-(3-CN-5-F-Ph))-βAla}-EGTFTSDYSI[Aib]LDKIAQK([AEEA-AEEA-γGlu-C20 diacid])AFVNWLIAGGPSSGAPPPS-NH2) has an EC50 (GLP-1 receptor [1]) of 0.1 to 1 nM, an Emax (GLP-1 receptor [1]) of 96% and an EC50 (GIP receptor [2]) of 10 to 100 nM. The Emax (GIP receptor [2]) was 98%, the EC50 (GIP receptor [3]) was under 1000 nM and the EC50 (GLP-1 receptor [4]) was over 1000 nM.
Work on `CC[C@H](C)[C@H](NC(=O)[C@H](CC(C)C)NC(=O)[C@H](Cc1c[nH]c2ccccc12)NC(=O)[C@H](CCC(N)=O)NC(=O)[C@@H](NC(=O)[C@H](Cc1ccccc1)NC(=O)[C@H](C)NC(=O)[C@H](CCCCNC(=O)COCCOCCNC(=O)COCCOCCNC(=O)CC[C@H](NC(=O)CCCCCCCCCCCCCCCCCCC(=O)O)C(=O)O)NC(=O)[C@H](C)NC(=O)[C@H](C)NC(=O)[C@@H](NC(=O)[C@H](CCCCN)NC(=O)[C@H](CC(=O)O)NC(=O)[C@H](CC(C)C)NC(=O)C(C)(C)NC(=O)[C@@H](NC(=O)[C@H](CO)NC(=O)[C@H](Cc1ccc(O)cc1)NC(=O)[C@H](CC(=O)O)NC(=O)[C@H](CO)NC(=O)[C@@H](NC(=O)[C@H](Cc1ccccc1)NC(=O)[C@@H](NC(=O)CNC(=O)[C@H](CCC(=O)O)NC(=O)CCNC(=O)C(C)(C)c1cc(F)cc(C#N)c1)[C@@H](C)O)[C@@H](C)O)[C@@H](C)CC)[C@@H](C)CC)C(C)C)C(=O)N[C@@H](C)C(=O)NCC(=O)NCC(=O)N1CCC[C@H]1C(=O)N[C@@H](CO)C(=O)N[C@@H](CO)C(=O)NCC(=O)N[C@@H](C)C(=O)N1CCC[C@H]1C(=O)N1CCC[C@H]1C(=O)N1CCC[C@H]1C(=O)N[C@@H](CO)C(N)=O` [Compound 183] ({Isobutyryl(2-(3-CN-5-F-Ph))-βAla}-EGTFTSDYSI[Aib]LDKIAAK([AEEA-AEEA-γGlu-C20 diacid])AFVQWLIAGGPSSGAPPPS-NH2) yielded an EC50 (GLP-1 receptor [1]) of 0.1 to 1 nM, an Emax (GLP-1 receptor [1]) of 96% and an EC50 (GIP receptor [2]) of 10 to 100 nM. The Emax (GIP receptor [2]) was 95%, the EC50 (GIP receptor [3]) was over 1000 nM and the EC50 (GLP-1 receptor [4]) was over 1000 nM.
For `CC[C@H](C)[C@H](NC(=O)[C@H](CO)NC(=O)[C@H](Cc1ccc(O)cc1)NC(=O)[C@H](CC(=O)O)NC(=O)[C@H](CO)NC(=O)[C@@H](NC(=O)[C@H](Cc1ccccc1)NC(=O)[C@@H](NC(=O)CNC(=O)[C@H](CCC(=O)O)NC(=O)CCNC(=O)C(C)(C)c1cc(F)cc(C#N)c1)[C@@H](C)O)[C@@H](C)O)C(=O)N[C@@H](Cc1ccc(O)cc1)C(=O)N[C@@H](CC(C)C)C(=O)N[C@@H](CC(=O)O)C(=O)N[C@@H](CCCCN)C(=O)N[C@@H](CCC(N)=O)C(=O)N[C@@H](C)C(=O)N[C@@H](C)C(=O)N[C@@H](CCCCNC(=O)COCCOCCNC(=O)COCCOCCNC(=O)CC[C@H](NC(=O)CCCCCCCCCCCCCCCCCCC(=O)O)C(=O)O)C(=O)N[C@@H](CCC(=O)O)C(=O)N[C@@H](Cc1ccccc1)C(=O)N[C@H](C(=O)N[C@@H](CC(N)=O)C(=O)N[C@@H](Cc1c[nH]c2ccccc12)C(=O)N[C@@H](CC(C)C)C(=O)N[C@@H](CC(C)C)C(=O)N[C@@H](C)C(=O)NCC(=O)NCC(=O)N1CCC[C@H]1C(=O)N[C@@H](CO)C(=O)N[C@@H](CO)C(=O)NCC(=O)N[C@@H](C)C(=O)N1CCC[C@H]1C(=O)N1CCC[C@H]1C(=O)N1CCC[C@H]1C(=O)N[C@@H](CO)C(N)=O)C(C)C` [Compound 184], the EC50 (GLP-1 receptor [1]) was 1 to 10 nM, the Emax (GLP-1 receptor [1]) was 99% and the EC50 (GIP receptor [2]) was 100 to 1000 nM. For the same compound, the Emax (GIP receptor [2]) was 90%, the EC50 (GIP receptor [3]) was over 1000 nM and the EC50 (GLP-1 receptor [4]) was over 1000 nM.
`CC[C@H](C)[C@H](NC(=O)[C@H](CC(C)C)NC(=O)[C@H](Cc1c[nH]c2ccccc12)NC(=O)[C@H](CCC(N)=O)NC(=O)[C@@H](NC(=O)[C@H](Cc1ccccc1)NC(=O)[C@H](C)NC(=O)[C@H](CCCCNC(=O)COCCOCCNC(=O)COCCOCCNC(=O)CC[C@H](NC(=O)CCCCCCCCCCCCCCCCCCC(=O)O)C(=O)O)NC(=O)[C@H](CCC(N)=O)NC(=O)[C@H](C)NC(=O)[C@@H](NC(=O)[C@H](CCCCN)NC(=O)[C@H](CC(=O)O)NC(=O)[C@H](CC(C)C)NC(=O)C(C)(C)NC(=O)[C@@H](NC(=O)[C@H](CO)NC(=O)[C@H](Cc1ccc(O)cc1)NC(=O)[C@H](CC(=O)O)NC(=O)[C@H](CO)NC(=O)[C@@H](NC(=O)[C@H](Cc1ccccc1)NC(=O)[C@@H](NC(=O)CNC(=O)[C@H](CCC(=O)O)NC(=O)CCNC(=O)C(C)(C)c1ccc(Cl)cc1)[C@@H](C)O)[C@@H](C)O)[C@@H](C)CC)[C@@H](C)CC)C(C)C)C(=O)N[C@@H](C)C(=O)NCC(=O)NCC(=O)N1CCC[C@H]1C(=O)N[C@@H](CO)C(=O)N[C@@H](CO)C(=O)NCC(=O)N[C@@H](C)C(=O)N1CCC[C@H]1C(=O)N1CCC[C@H]1C(=O)N1CCC[C@H]1C(=O)N[C@@H](CO)C(N)=O` [Compound 185] ({X3-βAla}-EGTFTSDYSI[Aib]LDKIAQK([AEEA-AEEA-γGlu-C20 diacid])AFVQWLIAGGPSSGAPPPS-NH2) showed an EC50 (GLP-1 receptor [1]) of 0.1 to 1 nM, an Emax (GLP-1 receptor [1]) of 101% and an EC50 (GIP receptor [2]) of 10 to 100 nM. For the same compound, the Emax (GIP receptor [2]) was 95%, the EC50 (GIP receptor [3]) was over 1000 nM and the EC50 (GLP-1 receptor [4]) was under 1000 nM.
In the case of `CC[C@H](C)[C@H](NC(=O)[C@H](CC(C)C)NC(=O)[C@H](Cc1c[nH]c2ccccc12)NC(=O)[C@H](CCC(N)=O)NC(=O)[C@@H](NC(=O)[C@H](Cc1ccccc1)NC(=O)[C@H](C)NC(=O)[C@H](CCCCNC(=O)COCCOCCNC(=O)COCCOCCNC(=O)CC[C@H](NC(=O)CCCCCCCCCCCCCCCCCCC(=O)O)C(=O)O)NC(=O)[C@H](CCC(N)=O)NC(=O)[C@H](C)NC(=O)[C@H](CCC(N)=O)NC(=O)[C@H](CCCCN)NC(=O)[C@H](CC(=O)O)NC(=O)[C@H](CC(C)C)NC(=O)C(C)(C)NC(=O)[C@@H](NC(=O)[C@H](CO)NC(=O)[C@H](Cc1ccc(O)cc1)NC(=O)[C@H](CC(=O)O)NC(=O)[C@H](CO)NC(=O)[C@@H](NC(=O)[C@H](Cc1ccccc1)NC(=O)[C@@H](NC(=O)CNC(=O)[C@H](CCC(=O)O)NC(=O)CCNC(=O)C(C)(C)c1cc(F)cc(C#N)c1)[C@@H](C)O)[C@@H](C)O)[C@@H](C)CC)C(C)C)C(=O)N[C@@H](C)C(=O)NCC(=O)NCC(=O)N1CCC[C@H]1C(=O)N[C@@H](CO)C(=O)N[C@@H](CO)C(=O)NCC(=O)N[C@@H](C)C(=O)N1CCC[C@H]1C(=O)N1CCC[C@H]1C(=O)N1CCC[C@H]1C(=O)N[C@@H](CO)C(N)=O` [Compound 186] ({Isobutyryl(2-(3-CN-5-F-Ph))-βAla}-EGTFTSDYSI[Aib]LDKQAQK([AEEA-AEEA-γGlu-C20 diacid])AFVQWLIAGGPSSGAPPPS-NH2), the EC50 (GLP-1 receptor [1]) is reported as 0.1 to 1 nM, the Emax (GLP-1 receptor [1]) is reported as 99% and the EC50 (GIP receptor [2]) is reported as 10 to 100 nM. For the same compound, the Emax (GIP receptor [2]) was 100%, the EC50 (GIP receptor [3]) was over 1000 nM and the EC50 (GLP-1 receptor [4]) was over 1000 nM.
